{"source": "patent US10966962B2", "about": "“Method for treating neurodegenerative diseases” (THE BOARD OF TRUSTEES OF THE LELAND STANFORD JUNIOR …, priority 2014, dated 2021)", "key": {"STZ-treated mice": {"tested_on": "STZ-treated mice", "assay": "Disease severity in acute STZ model of AD", "format": "in vivo", "conditions": "STZ-ZLN mice", "method": "To induce symptoms of AD, STZ (3 mg/kg, Sigma) was administered via intracerebral injection ([…] et al, Int J Neurosci, PMID 24494726, 2014). This is a well-established model of the sporadic form of AD. Briefly, animals were anesthetized and STZ solution in 5 μl artificial cerebrospinal fluid (Harvard Apparatus) was injected through the skull with a 50 μl syringe. Control animals received a similar volume of artificial cerebrospinal fluid without STZ. The injections were performed twice, on Day 1 and Day 3. […] Treatment with ZLN005 continued on a daily schedule until Day 4, when the animals were evaluated. […] In contrast, in STZ-Ctrl mice, only 10% were active, 70% were lethargic, and 20% of these animals had hind limb paralysis. […] The inventors designed a disease scoring system based on evidence of tissue inflammation: with scores of 1 (mild inflammation, increased vascularization/bleeding of internal organs), 2 (moderate inflammation, severe vascularization/bleeding of internal organs), and 3 (severe inflammation, intestinal or stomach swelling). […] The disease score presented in the example is the total score of the two scoring systems. […] Unpaired t-test was used for statistical analysis."}, "DLB transgenic animals": {"tested_on": "DLB transgenic animals", "assay": "Wheel-running test in DLB transgenic animals (SNCA*A53T)", "format": "in vivo, mice", "conditions": "25 mg/kg orally 3 times a week for 12 weeks", "method": "[…] transgenic mice, an animal model in which the mutated form of human alpha synuclein is overexpressed, were generated to study pathological mechanisms in PD and DLB (Lee et al, Proc Natl Acad Sci USA. 2002, 13:8968-8970). […] DLB transgenic animals were purchased from Jackson Laboratories and were orally treated 3 times a week with 0.5% methylcellulose (Ctrl) or ZLN005 (ZLN) at 25 mg/kg in vehicle, starting at 8 weeks of age for 12 weeks. Subsequently, at 20 weeks of age, these animals were subjected to 1.5 weeks of training on a treadmill at a constant speed 10 rpm and then 1.5 weeks of training at an accelerating speed from 5-15 rpm, similar to those described in Example 8. After the training period at 21.5 and 23 weeks of age, animals were tested for motor performance at a constant speed and at an accelerating speed, respectively. DLB-ZLN mice (n=11) show an increase in latency to fall in comparison to DLB-Ctrl mice (n=9) at a constant speed of 10 rpm (271.5 seconds vs. 252.8 seconds). […] Thus, motor dysfunction of DLB mice was alleviated by ZLN005 treatment. Unpaired t-tests were used for statistical analyses."}, "microglia [1]": {"tested_on": "microglia", "assay": "Microglia metabolic phenotype in 5XFAD AD transgenic animals (MitotrackerGreen, 2-NBDG)", "format": "in vivo, mice", "conditions": "25 mg/kg orally 3 times a week for 4 weeks, 7 weeks of age", "method": "AD transgenic animals were orally treated 3 times a week for 4 weeks with 0.5% methylcellulose or ZLN005 (Sigma) at 25 mg/kg in 0.5% methylcellulose, starting at 3 weeks of age. For studies of microglia, 5[…]=10) and 5XFAD-Ctrl (n=8) animals and WT animals (n=11) were sacrificed at 7 weeks of age. PBS-perfused brain tissues of sacrificed animals were digested with Collagenase IV and processed for flow cytometry. Brain microglia were phenotyped with 2-NBDG and MitotrackerGreen (Invitrogen) for flow cytometric acquisition (LSRII, BD) and analysis (FlowJo). The results are summarized in FIG. 13; Y-axis represents % of microglia that highly expressed MitotrackerGreen (A) and had taken up 2-NBDG (B). Mitochondrial respiration and glycolysis are two key energy generating pathways in living cells. In immune cells like microglia, inflammatory transformation is associated with upregulation of glucose utilization and depression of mitochondrial biogenesis and function. […] ANOVA was used for statistical analyses."}, "microglia [2]": {"tested_on": "microglia", "assay": "Microglial metabolic phenotyping in MPTP-treated animals (Slc2a1 flow cytometry, ex vivo lactic acid production)", "parameters": "species or system mice", "conditions": "3 oral doses", "from_the_text": "For measuring microglial expression of glucose transporter Slc2a1, MPTP-ZLN (n=10), MPTP-Ctrl (n=14), and Veh animals (n=14) were sacrificed. Brain microglia were phenotyped with antibody directed against glucose transporter Slc2a1 (RnD) for flow cytometric acquisition (LSRII, BD) and analysis (FlowJo). For measuring microglial glycolysis, MPTP-ZLN (n=8), MPTP-Ctrl (n=6), and Veh animals (n=6) were sacrificed. Microglia were sorted by flow cytometry and subjected to lactic acid production assays ex vivo (Cayman Chem) for glycolysis measurement. Y-axis represents Slc2a1 expression in median fluorescence units (MFI, A) and lactic acid production in micromolar units ([…], B). […] ANOVA was used for statistical analyses."}, "[3]": {"tested_on": "CD115+CD11b+blood monocytes", "assay": "Systemic inflammation in ALS transgenic animals (blood monocytes, serum TNF-α ELISA)", "format": "in vivo, mice", "conditions": "25 mg/kg orally 3 times a week for 8 weeks", "method": "ALS transgenic animals were orally treated 3 times a week for 8 weeks with 0.5% methylcellulose or ZLN005 (Sigma) at 25 mg/kg in 0.5% methylcellulose, starting at 5 weeks of age. For measuring the frequency of CD115+CD11b+blood monocytes, ALS-Ctrl transgenic animals (n=10), ALS-ZLN (n=10), and WT animal (n=10) were sacrificed at 13 weeks of age. The Y-axis in FIGS. 21A and 21B represents % of total monocytes and % of Ly6C+ inflammatory monocytes among circulating immune cells."}}, "data": [{"smiles": "CC(C)(C)c1ccc(-c2nc3ccccc3[nH]2)cc1", "note": "[ZLN005, 2-(4-tert-butylphenyl)-1H-benzimidazole]", "values": [{"measurement": "animals active", "setting": "STZ-treated mice; 25 mg/kg orally daily, Day 4", "value": 33, "unit": "%"}, {"measurement": "animals paralyzed", "setting": "STZ-treated mice; 25 mg/kg orally daily, Day 4", "value": "none"}, {"measurement": "animals showing evidence of lethargy", "setting": "STZ-treated mice; 25 mg/kg orally daily, Day 4", "value": 66, "unit": "%"}, {"measurement": "mean disease score", "setting": "STZ-treated mice; day 4, total of inflammation and physical activity scores", "value": 1.6}, {"measurement": "latency to fall", "setting": "DLB transgenic animals; accelerating speed 5-15 rpm, p <0.05 vs Ctrl", "value": 194.0, "unit": "s"}, {"measurement": "latency to fall", "setting": "DLB transgenic animals; constant speed 10 rpm, difference to Ctrl not statistically significant", "value": 271.5, "unit": "s"}, {"measurement": "glucose uptake in microglia (2-NBDG)", "setting": "microglia [1]", "value": "decreased"}, {"measurement": "mitochondrial mass in microglia (Mitotracker Green)", "setting": "microglia [1]", "value": "enhanced"}, {"measurement": "lactic acid production in microglia", "setting": "microglia [2]; Day 4, ex vivo, vs MPTP-Ctrl", "value": "decreased"}, {"measurement": "glucose transporter Slc2a1 expression in microglia", "setting": "microglia [2]; Day 4, vs MPTP-Ctrl", "value": "decreased"}, {"measurement": "% of Ly6C+ inflammatory monocytes among circulating immune cells", "setting": "[3]; 13 weeks of age", "value": "decreased"}, {"measurement": "% of total monocytes among circulating immune cells", "setting": "[3]; 13 weeks of age", "value": "decreased"}, {"measurement": "serum levels of TNF-α", "setting": "[3]; ELISA", "value": "significantly suppressed"}]}]}
